Assay results: paper PMC8634040, “The multi-target aspect of an MmpL3 inhibitor: The BM212 series of compounds bind EthR2, a transcriptional regulator of ethionamide activation” (The Cell Surface, 2021)

How the values were obtained:
EthR2 (Rv0078) = EthR2 (Rv0078) (Mycobacterium tuberculosis, UniProt O53623); experiment: biochemical; type: binding
[1] = target: T1, BCG_0174 (SnoaL-like domain-containing, ortholog to Rv0138) (Mycobacterium tuberculosis, UniProt A0A679LAM0); experiment: chemoproteomic competition with immobilised GSK569A/GSK574A beads, TMT LC-MS/MS; IC50 […]; type: biochemical
T1 construct: gene BQ2027_MB0143

BCG_0109 (EthR2) = target: T2, BCG_0109 (EthR2) (Mycobacterium tuberculosis, UniProt O53623); experiment: as above; type: biochemical
T2 construct: gene Rv0078
T2 sequence (O53623 entry or part of it): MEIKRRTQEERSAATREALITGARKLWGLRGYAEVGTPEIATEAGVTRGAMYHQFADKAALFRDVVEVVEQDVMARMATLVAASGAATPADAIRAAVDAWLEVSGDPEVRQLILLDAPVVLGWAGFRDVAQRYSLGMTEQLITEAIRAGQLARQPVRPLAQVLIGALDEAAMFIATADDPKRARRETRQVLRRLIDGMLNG

EthR2 (Rv0078), sequence (O53623 entry or part of it): as above
T1 sequence (A0A679LAM0 entry or part of it): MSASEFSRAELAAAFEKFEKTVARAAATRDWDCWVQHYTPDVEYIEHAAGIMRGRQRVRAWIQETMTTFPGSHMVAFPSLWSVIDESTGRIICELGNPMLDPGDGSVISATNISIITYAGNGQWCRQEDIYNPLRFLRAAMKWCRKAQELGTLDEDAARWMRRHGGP

Row | SMILES | Kd (EthR2 (Rv0078)) [µM] | Kd [1] [µM] | Kd (BCG_0109 (EthR2)) [µM]
1 | Cc1c(CN2CCN(C)CC2)cc(-c2ccc(Cl)cc2)n1-c1ccc(Cl)cc1 [BM212, 1-((1,5-bis(4-chlorophenyl)-2-methyl-1H-pyrrol-3-yl)methyl)-4-methylpiperazine] | 0.66 |  | 
2 | Cc1c(CN2CCN(C)CC2)cc(-c2ccc(C(C)C)cc2)n1-c1ccc(F)cc1 [GSK074A, 1-((1-(4-Fluorophenyl)-5-(4-isopropylphenyl)-2-methyl-1H-pyrrol-3-yl)methyl)-4-methylpiperazine] |  | 7.3 | 2.9
